Experimental data published in ChEMBL document CHEMBL5365467 (J Med Chem, 2023).
Calls of active or inactive are those of the source. No cut-off for these calls is given here.

Tests used:
Protein cereblon = Protein cereblon (Homo sapiens, UniProt Q96SW2); experiment: Binding affinity to CRBN (unknown origin) assessed as inhibition constant
[1] = AUC (0 to t) in Sprague-Dawley rat at 1 mg/kg, iv measured upto 24 hrs by LC-MS/MS analysis; format: ADME, organism-based; set-up: dose 1 mg/kg, time < 24 hrs, route iv; conditions: in vivo
VCaP [2] = experiment: Growth inhibition in human VCaP cells
[3] = Half life in Sprague-Dawley rat at 3 mg/kg, po measured upto 24 hrs by LC-MS/MS analysis; format: ADME, organism-based; conditions: in vivo
[4] = AUC (0 to t) in Sprague-Dawley rat at 3 mg/kg, po measured upto 24 hrs by LC-MS/MS analysis; format: ADME, organism-based; set-up: dose 3 mg/kg, time < 24 hrs, route po; conditions: in vivo
[5] = Clearance in Sprague-Dawley rat at 1 mg/kg, iv measured upto 24 hrs by LC-MS/MS analysis; format: ADME, organism-based; conditions: in vivo
[6] = Cmax in Sprague-Dawley rat at 3 mg/kg, po measured upto 24 hrs by LC-MS/MS analysis; format: ADME, organism-based; set-up: dose 3 mg/kg, time < 24 hrs, route po; conditions: in vivo
[7] = Volume of distribution at steady state in Sprague-Dawley rat at 1 mg/kg, iv measured upto 24 hrs by LC-MS/MS analysis; format: ADME, organism-based; conditions: in vivo, read-out: Vdss
[8] = Oral bioavailability in Sprague-Dawley rat at 3 mg/kg measured upto 24 hrs by LC-MS/MS analysis; format: ADME, organism-based; conditions: in vivo
[9] = Half life in Sprague-Dawley rat at 1 mg/kg, iv measured upto 24 hrs by LC-MS/MS analysis; format: ADME, organism-based; conditions: in vivo
[10] = Half life in Sprague-Dawley rat at 5 mg/kg, po measured upto 24 hrs by LC-MS/MS analysis; conditions: in vivo
[11] = molecular target: Protein cereblon/Androgen receptor (Homo sapiens, UniProt P10275+Q96SW2, T878A); experiment: PROTAC activity at AR T878A mutant/CRBN in human LNCaP cells assessed as induction of androgen receptor degradation measured at 24 hrs by Western blot analysis; format: cell-based
[12] = molecular target: Protein cereblon/Androgen receptor (Homo sapiens, UniProt P10275+Q96SW2); experiment: PROTAC activity at AR/CRBN in AR-positive human VCaP cells assessed as induction of androgen receptor degradation measured at 24 hrs; format: cell-based
Androgen receptor = molecular target: T1, Androgen receptor (Homo sapiens, UniProt P10275)
T1 sequence (P10275 whole entry): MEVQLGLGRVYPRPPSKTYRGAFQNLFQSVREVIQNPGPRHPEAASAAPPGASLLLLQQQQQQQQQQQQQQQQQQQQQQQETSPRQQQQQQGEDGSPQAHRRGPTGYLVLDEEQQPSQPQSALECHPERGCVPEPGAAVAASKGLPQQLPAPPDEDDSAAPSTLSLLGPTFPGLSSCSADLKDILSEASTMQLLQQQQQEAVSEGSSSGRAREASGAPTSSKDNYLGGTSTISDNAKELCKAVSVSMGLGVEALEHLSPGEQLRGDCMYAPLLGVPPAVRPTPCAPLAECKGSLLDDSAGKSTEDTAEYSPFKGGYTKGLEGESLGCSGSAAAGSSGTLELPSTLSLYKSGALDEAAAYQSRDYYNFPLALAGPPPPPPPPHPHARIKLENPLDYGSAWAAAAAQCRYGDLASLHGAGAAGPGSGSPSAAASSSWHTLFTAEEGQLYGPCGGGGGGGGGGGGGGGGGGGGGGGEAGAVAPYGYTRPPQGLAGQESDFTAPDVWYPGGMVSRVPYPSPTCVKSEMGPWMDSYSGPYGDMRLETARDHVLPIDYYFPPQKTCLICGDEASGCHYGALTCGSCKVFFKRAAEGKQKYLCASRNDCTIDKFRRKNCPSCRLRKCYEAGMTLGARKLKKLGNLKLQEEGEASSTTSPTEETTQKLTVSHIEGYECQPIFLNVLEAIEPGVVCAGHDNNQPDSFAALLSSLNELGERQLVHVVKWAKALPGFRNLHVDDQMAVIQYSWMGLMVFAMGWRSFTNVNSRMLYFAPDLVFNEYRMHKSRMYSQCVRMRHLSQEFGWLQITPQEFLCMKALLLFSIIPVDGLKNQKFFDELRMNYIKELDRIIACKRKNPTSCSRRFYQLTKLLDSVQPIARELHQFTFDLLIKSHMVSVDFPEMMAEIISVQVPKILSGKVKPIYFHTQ

in vivo [13] = conditions: Sprague-Dawley, rat, po, 5 mg/kg
[14] = Volume of distribution at steady state in Sprague-Dawley rat at 2 mg/kg, iv measured upto 24 hrs by LC-MS/MS analysis; conditions: in vivo
in vivo [15] = conditions: Sprague-Dawley, rat, iv, 2 mg/kg
[16] = Clearance in Sprague-Dawley rat at 2 mg/kg, iv measured upto 24 hrs by LC-MS/MS analysis; conditions: in vivo
in vivo [17] = conditions: Sprague-Dawley, rat, po, 5 mg/kg; remark: listed apart in the source
[18] = Half life in Sprague-Dawley rat at 2 mg/kg, iv measured upto 24 hrs by LC-MS/MS analysis; conditions: in vivo
in vivo [19] = conditions: Sprague-Dawley, rat, po, 5 mg/kg; remark: listed apart in the source
LNCaP = experiment: Growth inhibition in human LNCaP cells assessed as reduction in cell viability
VCaP [20] = experiment: Downregulation of PLOD2 protein expression in human VCaP cells at 10 uM measured for 24 hrs by proteomics analysis; format: functional, cell-based
VCaP [21] = experiment: Downregulation of HAUS8 protein expression in human VCaP cells at 10 uM measured for 24 hrs by proteomics analysis; format: functional, cell-based
VCaP [22] = experiment: Downregulation of PCLAF protein expression in human VCaP cells at 10 uM measured for 24 hrs by proteomics analysis; format: functional, cell-based
VCaP [23] = experiment: Antitumor activity against human VCaP cells xenografted in CB17-SCID mouse assessed as tumor growth inhibition at 10 mg/kg, po administered for 21 days; format: functional; conditions: 504 h, time 21 day, read-out: TGI

Sequence of Protein cereblon (Q96SW2 whole entry): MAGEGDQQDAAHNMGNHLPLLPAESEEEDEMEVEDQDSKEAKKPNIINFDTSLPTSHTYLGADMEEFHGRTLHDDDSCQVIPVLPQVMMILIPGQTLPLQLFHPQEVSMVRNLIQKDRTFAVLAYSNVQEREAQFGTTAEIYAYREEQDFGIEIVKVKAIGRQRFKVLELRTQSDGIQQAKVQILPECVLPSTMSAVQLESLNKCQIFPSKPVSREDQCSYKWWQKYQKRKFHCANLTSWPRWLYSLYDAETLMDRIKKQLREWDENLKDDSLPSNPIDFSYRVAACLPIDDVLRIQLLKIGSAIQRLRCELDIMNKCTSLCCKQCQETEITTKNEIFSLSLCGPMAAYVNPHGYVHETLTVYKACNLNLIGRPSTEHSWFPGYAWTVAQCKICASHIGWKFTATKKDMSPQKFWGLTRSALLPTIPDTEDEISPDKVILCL
Sequence of Protein cereblon/Androgen receptor (Homo sapiens, UniProt P10275+Q96SW2) (Q96SW2 whole entry, one chain of several): as the sequence (Q96SW2 whole entry) above

Compound | IC50 (VCaP [2]) | half-life at 24 h [10] | DC50 [11] | DC50 ([12]; read-out: DC50) | Cmax at 24 h (in vivo [13]) | Vd at 24 h [14] | AUC(0-t) at 24 h (in vivo [15]) | clearance at 24 h [16] | AUC(0-t) at 24 h (in vivo [17]) | half-life at 24 h [18] | bioavailability at 24 h (in vivo [19]) | further results
O=C1CCC(N2C(=O)c3ccc(N4CCC4)cc3C2=O)C(=O)N1 (stereo not drawn) | – | – | – | – | – | – | – | – | – | – | – | Ki (Protein cereblon): 500 nM
C[C@H]1CC2(CCN(c3cnc(C(=O)N4CCC(CN5Cc6cc7c(cc6C5)C(=O)N(C5CCC(=O)NC5=O)C7=O)CC4)cn3)CC2)CN1c1ccc(C#N)c(Cl)c1 (stereo partly drawn) | 10 nM | – | – | – | – | – | – | – | – | – | – | AUC(0-t) at 24 h [1]: 495 ng·h/mL; half-life [3]: 1.2 h; AUC(0-t) at 24 h [4]: 235 ng·h/mL; clearance [5]: 33.3 mL/min/kg; Cmax [6]: 55 ng/mL; Vd [7]: 2.3 L/kg; bioavailability [8]: 15%; half-life [9]: 1.4 h
C[C@H]1CC2(CCN(c3ccc(C(=O)N4CCC(CN5Cc6cc7c(cc6C5)C(=O)N(C5CCC(=O)NC5=O)C7=O)CC4)nn3)CC2)CN1c1ccc(C#N)c(Cl)c1 (stereo partly drawn) | 20 nM | 1.4 h | 0.5 nM | 2.7 nM | – | – | – | – | – | – | – | AUC(0-t) at 24 h [1]: 1010 ng·h/mL; AUC(0-t) at 24 h [4]: 1100 ng·h/mL; clearance [5]: 32.3 mL/min/kg; Cmax [6]: 247 ng/mL; Vd [7]: 2.2 L/kg; bioavailability [8]: 36%; half-life [9]: 2 h
CN(c1ccc(C#N)c(Cl)c1)[C@H]1CC[C@H](NC(=O)c2ccc(N3CCN(C4CN(c5ccc6c(c5)C(=O)N(C5CCC(=O)NC5=O)C6=O)C4)CC3)cc2)CC1 (stereo partly drawn) | – | – | – | – | – | – | – | – | – | – | – | AUC(0-t) at 24 h [1]: 1300 ng·h/mL; half-life [3]: 6.9 h; IC50 (Androgen receptor): 15 nM; AUC(0-t) at 24 h [4]: 535 ng·h/mL; clearance [5]: 12.5 mL/min/kg; Cmax [6]: 57 ng/mL; Vd [7]: 5.3 L/kg; bioavailability [8]: 13%; half-life [9]: 5.5 h
COC1(CN2Cc3cc4c(cc3C2)C(=O)N(C2CCC(=O)NC2=O)C4=O)CCN(C(=O)c2ccc(N3CCC4(CC3)C[C@H](C)N(c3ccc(C#N)c(Cl)c3)C4)cc2)CC1 (stereo partly drawn) | 4.9 nM | 5.6 h | 1 nM | 0.3 nM | 179 ng/mL | 4.1 L/kg | 2390 ng·h/mL | 13.8 mL/min/kg | 1320 ng·h/mL | 4.9 h | 22% | –
C[C@H]1CC2(CCN(c3ccc(C(=O)N4CCC(C)(CN5Cc6cc7c(cc6C5)C(=O)N(C5CCC(=O)NC5=O)C7=O)CC4)cc3)CC2)CN1c1ccc(C#N)c(Cl)c1 (stereo partly drawn) | 42 nM | 8.4 h | 8.9 nM | 3.8 nM | 539 ng/mL | 3.1 L/kg | 5090 ng·h/mL | 6.33 mL/min/kg | 5730 ng·h/mL | 6.1 h | 45% | –
CN1CCc2cc3c(cc2CC1)C(=O)N(C1CCC(=O)NC1=O)C3=O (stereo not drawn) | – | – | – | – | – | – | – | – | – | – | – | Ki (Protein cereblon): 7300 nM
C[C@H]1CC2(CCN(c3ccc(C(=O)N4CCC(N5Cc6cc7c(cc6C5)C(=O)N(C5CCC(=O)NC5=O)C7=O)CC4)cc3)CC2)CN1c1ccc(C#N)c(Cl)c1 (stereo partly drawn) | 16.5 nM | 5.5 h | 0.8 nM | 0.4 nM | 410 ng/mL | 6.1 L/kg | 2100 ng·h/mL | 15.3 mL/min/kg | 4280 ng·h/mL | 5.5 h | 81% | –
CNC(=O)c1ccc(N2C(=S)N(c3ccc(C#N)c(C(F)(F)F)c3)C(=O)C2(C)C)cc1F [ENZALUTAMIDE] | – | – | – | – | – | – | – | – | – | – | – | IC50 (LNCaP): 213 nM
C[C@H]1CC2(CCN(c3ccc(C(=O)N4CCC(F)(CN5Cc6cc7c(cc6C5)C(=O)N(C5CCC(=O)NC5=O)C7=O)CC4)cc3)CC2)CN1c1ccc(C#N)c(Cl)c1 (stereo partly drawn) | 18 nM | 5.2 h | 3.7 nM | 0.9 nM | 216 ng/mL | 4.2 L/kg | 4000 ng·h/mL | 7.83 mL/min/kg | 1820 ng·h/mL | 7.9 h | 18% | –
C[C@H]1CC2(CCN(c3ccc(C(=O)N4CCN(C)CC4)cc3)CC2)CN1c1ccc(C#N)c(Cl)c1 | – | – | – | – | – | – | – | – | – | – | – | Activity (VCaP [20]): inactive; Activity (VCaP [21]): inactive; DC50 [12]: Not Active; Activity (VCaP [22]): inactive
CN1CCc2cc3c(cc2C1)C(=O)N(C1CCC(=O)NC1=O)C3=O (stereo not drawn) | – | – | – | – | – | – | – | – | – | – | – | Ki (Protein cereblon): 6000 nM
N#Cc1ccc(O[C@H]2CC[C@H](NC(=O)c3ccc(N4CCC(CN5CCN(c6cc7c(cc6F)C(=O)N(C6CCC(=O)NC6=O)C7=O)CC5)CC4)nn3)CC2)cc1Cl (stereo partly drawn) [BAVDEGALUTAMIDE] | 16.2 nM | – | – | – | – | – | – | – | – | – | – | AUC(0-t) at 24 h [1]: 2270 ng·h/mL; half-life [3]: 27.1 h; AUC(0-t) at 24 h [4]: 3600 ng·h/mL; inhibition in vivo at 10 mg/kg (VCaP [23]): 47%; IC50 (LNCaP): 18.5 nM; clearance [5]: 6 mL/min/kg; Cmax [6]: 280 ng/mL; Vd [7]: 4.6 L/kg; bioavailability [8]: 52%; half-life [9]: 12 h
C[C@H]1CC2(CCN(c3ccc(C(=O)N4CC(N5Cc6cc7c(cc6C5)C(=O)N(C5CCC(=O)NC5=O)C7=O)C4)cc3)CC2)CN1c1ccc(C#N)c(Cl)c1 (stereo partly drawn) | 85 nM | 1.89 h | 5 nM | 0.7 nM | 94 ng/mL | 2.7 L/kg | 2370 ng·h/mL | 14.5 mL/min/kg | 423 ng·h/mL | 3.2 h | 7.2% | –
CN1CCN(c2cc3c(cc2F)C(=O)N(C2CCC(=O)NC2=O)C3=O)CC1 (stereo not drawn) | – | – | – | – | – | – | – | – | – | – | – | Ki (Protein cereblon): 4900 nM
C[C@H]1CC2(CCN(c3ccc(C(=O)N4CC(CN5Cc6cc7c(cc6C5)C(=O)N(C5CCC(=O)NC5=O)C7=O)C4)cc3)CC2)CN1c1ccc(C#N)c(Cl)c1 (stereo partly drawn) | 25.7 nM | 1.2 h | – | – | 78 ng/mL | 1.8 L/kg | 1380 ng·h/mL | 25 mL/min/kg | 310 ng·h/mL | 1.4 h | 9% | –
